Test results taken from patent US8063240B2, “Prostaglandin E1 and E2 analogs for the treatment of various medical conditions” (Cayman Chemical Company, Incorporated, priority 2007, dated 2011).

Columns and labels:
[1] = Stability of purified HPLC peak left overnight in mobile phase; assay type: physicochemical; conditions: mobile phase 70:30:0.1 MeOH/H2O/AcOH
Experimental: Mobile phase: 70:30:0.1 MeOH/H2O/AcOH—premixed
Sample concentration: sample was dissolved at 100 mg/mL in 70:30 MeOH/H2O Peaks were collected manually at 0° C. and purified batches were kept at −20° C. at the end of each day. Peak 2 (title compound, 14.6 minute retention time) degrades about 6% when left at 4° C. overnight in mobile phase and degrades minimally (<1%) when left at −20° C. overnight. […] LCMS data of both products confirm masses consistent with the designations presented herein.

human EP1 receptor = target: T1, human EP1 receptor (Homo sapiens, UniProt P34995); assay: Functional Assay #1AGii (Cerep EP1 Agonist Assay), cytosolic Ca2+ mobilization, fluorimetric detection; assay type: cell-based; conditions: mean of N=2, percent of control response to 100 nM PGE2, transfected HEK-293 cells
T1 construct: host or cells: HEK-293
T1 sequence (P34995 1-402): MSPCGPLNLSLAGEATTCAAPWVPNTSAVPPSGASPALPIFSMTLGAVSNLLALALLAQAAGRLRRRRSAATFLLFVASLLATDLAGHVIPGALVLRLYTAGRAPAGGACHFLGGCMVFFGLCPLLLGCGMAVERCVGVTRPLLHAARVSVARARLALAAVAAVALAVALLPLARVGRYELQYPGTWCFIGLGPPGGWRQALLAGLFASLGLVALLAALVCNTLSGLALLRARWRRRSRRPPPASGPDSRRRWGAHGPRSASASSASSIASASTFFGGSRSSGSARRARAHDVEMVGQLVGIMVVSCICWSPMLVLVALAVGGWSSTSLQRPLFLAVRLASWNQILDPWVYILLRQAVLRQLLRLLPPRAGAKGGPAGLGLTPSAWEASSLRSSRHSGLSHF
Text: Alternative EP1 Receptor Agonism Assay
(Cerep, Catalog reference 722-55a; UNGRIN, M. D., SINGH L. M. R., STOCCO, R., SAS, D. E. and ABRAMOVITZ, M. (1999), An automated aequorin luminescence-based functional calcium assay for G-Protein-Coupled Receptors. Analytical Biochem., 272, 34.)
Evaluation of the agonist activity of compounds at the human EP1 receptor in transfected HEK-293 cells, determined by measuring their effect on cytosolic Ca^2+ ion mobilization using a fluorimetric detection method.
The cells are suspended in DMEM buffer (Invitrogen), then distributed in microplates at a density of 3.10^4 cells/well. The fluorescent probe (Fluo4 NR, Invitrogen) mixed with probenicid in HBSS buffer (Invitrogen) complemented with 20 mM Hepes (Invitrogen) (pH 7.4) is then added into each well and equilibrated with the cells for 30 minutes at 37° C. then 30 minutes at 22° C. Thereafter, the assay plates are positioned in a microplate reader (CellLux, PerkinElmer) which is used for the addition of the test compound, reference agonist or HBSS buffer (basal control), and the measurements of changes in fluorescence intensity which varies proportionally to the free cytosolic Ca^2+ ion concentration. For stimulated control measurements, PGE2 at 100 nM is added in separate assay wells.
The results are expressed as a percent of the control response to 100 nM PGE2. The standard reference agonist is PGE2, which is tested in each experiment at several concentrations to generate a concentration-response curve from which its EC50 value is calculated.

human EP2 receptor = target: T2, human EP2 receptor (Homo sapiens, UniProt P43116); assay: Functional Assay #2AGii (Cerep EP2 Agonist Assay), cAMP production, HTRF detection; assay type: cell-based; conditions: mean of N=2, percent of control response to 10 μM PGE2, transfected CHO cells
T2 construct: host or cells: CHO
Text: Alternative EP2 Receptor Agonism Assay
(Cerep, Catalog reference 758-54a; WILSON, R. J., RHODES, S. A., WOOD, R. L., SHIELD, V. J., NOEL, L. S., GRAY, D. W. and GILES H. (2004), Functional pharmacology of human prostanoid EP2 and EP4 receptors, Eur. J. Pharmacol., 501, 49.)
Evaluation of the agonist activity of compounds at the human EP2 receptor in transfected CHO cells, determined by measuring their effects on cAMP production using the HTRF detection method.
(§1) The cells are suspended in HBSS buffer (Invitrogen) complemented with HEPES 20 mM (pH 7.4) and 500 μM IBMX, then distributed in microplates at a density of 10^4 cells/well and incubated for 30 minutes at 37° C. in the absence (control) or presence of the test compound or the reference agonist. For stimulated control measurements, separate assay wells contain 10 μM PGE2. Following incubation, the cells are lysed and the fluorescence acceptor (D2-labeled cAMP) and fluorescence donor (anti-cAMP antibody labeled with europium cryptate) are added. After 60 minutes at room temperature, the fluorescence transfer is measured at λex=337 nm and λem=620 and 665 nm using a microplate reader (Rubystar, BMG). The cAMP concentration is determined by dividing the signal measured at 665 nm by that measured at 620 nm (ratio). The results are expressed as a percent of the control response to 10 μM PGE2. The standard reference agonist is PGE2, which is tested in each experiment at several concentrations to generate a concentration-response curve from which its EC50 value is calculated.

human EP4 receptor = target: T3, human EP4 receptor (Homo sapiens, UniProt P35408); assay: Functional Assay #4AGii (Cerep EP4 Agonist Assay), cAMP production, HTRF detection; assay type: cell-based; conditions: mean of N=2, percent of control response to 1 μM PGE2, transfected CHO cells
T3 construct: host or cells: CHO
Experimental: Alternative EP4 Receptor Agonism Assay
(Cerep, Catalog Reference 758-49a; Wilson, R. J., et al., Ibid.)
Evaluation of the agonist activity of compounds at the human EP4 receptor in transfected CHO cells, determined by measuring their effects on cAMP production using the HTRF detection method.
as §1, with “2.10^4” for “10^4”, “10” for “30”, “room temperature” for “37° C.”, “1” for “10”

T2 sequence (P43116 whole entry): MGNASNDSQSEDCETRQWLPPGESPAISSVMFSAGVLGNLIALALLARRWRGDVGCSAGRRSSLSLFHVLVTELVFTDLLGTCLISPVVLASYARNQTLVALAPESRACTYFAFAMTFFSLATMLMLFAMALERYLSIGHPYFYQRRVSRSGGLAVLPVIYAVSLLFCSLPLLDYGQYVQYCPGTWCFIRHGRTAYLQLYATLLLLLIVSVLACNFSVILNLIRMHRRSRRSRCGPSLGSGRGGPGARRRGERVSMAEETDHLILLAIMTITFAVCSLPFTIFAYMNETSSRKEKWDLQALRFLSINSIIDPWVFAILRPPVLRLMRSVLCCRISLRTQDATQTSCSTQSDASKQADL
T3 sequence (P35408 whole entry): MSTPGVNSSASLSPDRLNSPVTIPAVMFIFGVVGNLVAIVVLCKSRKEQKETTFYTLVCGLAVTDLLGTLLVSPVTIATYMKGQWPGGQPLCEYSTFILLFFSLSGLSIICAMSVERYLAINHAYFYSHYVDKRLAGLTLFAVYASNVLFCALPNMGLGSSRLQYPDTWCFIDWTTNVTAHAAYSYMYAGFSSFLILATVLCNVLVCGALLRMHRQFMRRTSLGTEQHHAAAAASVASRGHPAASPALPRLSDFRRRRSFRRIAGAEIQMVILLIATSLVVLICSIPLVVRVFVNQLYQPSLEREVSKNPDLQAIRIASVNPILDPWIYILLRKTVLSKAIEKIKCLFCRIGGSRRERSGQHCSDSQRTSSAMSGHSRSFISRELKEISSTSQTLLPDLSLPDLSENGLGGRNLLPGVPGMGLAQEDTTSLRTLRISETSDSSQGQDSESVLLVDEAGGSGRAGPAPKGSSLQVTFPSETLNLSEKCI

Structure (SMILES)	degradation when left overnight in mobile phase ([1]; 4° C. overnight)	degradation when left overnight in mobile phase ([1]; −20° C. overnight) [%]	% Control Agonist response @ compound concentration (human EP1 receptor; 0.1 μM) [%]	% Control Agonist response @ compound concentration (human EP1 receptor; 1 μM) [%]	% Control Agonist response @ compound concentration (human EP1 receptor; 10 μM) [%]	% Control Agonist response @ compound concentration (human EP2 receptor; 0.1 μM) [%]	% Control Agonist response @ compound concentration (human EP2 receptor; 1 μM) [%]	% Control Agonist response @ compound concentration (human EP2 receptor; 10 μM) [%]	% Control Agonist response @ compound concentration (human EP4 receptor; 0.1 μM) [%]	% Control Agonist response @ compound concentration (human EP4 receptor; 1 μM) [%]	% Control Agonist response @ compound concentration (human EP4 receptor; 10 μM) [%]
O=C(O)CCC/C=C\C[C@H]1C(=O)C[C@H](F)[C@@H]1/C=C/[C@@H](O)C1Cc2ccccc2C1 (single isomer, unassigned) [Example 17]	about 6%	< 1	–	–	–	–	–	–	–	–	–
O=C(O)CCC/C=C\C[C@H]1C(=O)C[C@@H](O)[C@@H]1/C=C/[C@@H](O)c1cc2ccccc2s1 [Example 7, (Z)-7-((1R,2R,3R)-2-((R,E)-3-(benzo[b]thiophen-2-yl)-3-hydroxyprop-1-enyl)-3-hydroxy-5-oxocyclopentyl)hept-5-enoic Acid]	–	–	80	88	144	0	−1	5	−1	4	29
